pIC50: −log10 of the molar value.
Biological target: T1, Bovine lysyl oxidase (LOX) (Bos taurus, UniProt P33072)
T1 construct: from tissue; host or cells: adult bovine tendon
T1 sequence (P33072 170-418): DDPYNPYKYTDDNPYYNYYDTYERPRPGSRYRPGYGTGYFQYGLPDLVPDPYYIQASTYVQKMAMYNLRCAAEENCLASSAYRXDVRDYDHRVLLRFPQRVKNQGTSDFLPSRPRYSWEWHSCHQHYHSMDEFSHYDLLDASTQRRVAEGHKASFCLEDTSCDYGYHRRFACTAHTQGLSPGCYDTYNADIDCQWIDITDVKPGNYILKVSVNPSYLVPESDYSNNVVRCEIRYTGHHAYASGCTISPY
Assay: LOX inhibition assay, fluorometric (cadaverine / HRP / Amplex Red)
Format: biochemical
Settings: LOX extracted from bovine tendon; 30 min preincubation at 37° C.; 5 mM cadaverine; read-out: Activity Range LOX
Description: The ability of compounds to inhibit prototypic LOX was determined using a fluorometric assay. This assay measures the activity of lysyl oxidases by coupling the reaction with horseradish peroxidase-catalyzed […]. The activity assay protocol uses cadaverine as substrate that releases hydrogen peroxide upon transformation by prototypic LOX enzyme present in the sample. Hydrogen peroxide was in turn detected using a red fluorescence substrate for HRP-coupled reactions (Amplex Red Enzyme Assays, Thermo Scientific Fisher). This lead to an increase in fluorescence that can be easily detected at Ex/Em=540/590 nm in a fluorescence microplate
Bovine lysyl oxidase (LOX) was extracted by adapting the methodology from [Kagan et al. 1979 and Borel et al. 2001.] from bovine tendon: Frozen adult bovine tendon was placed in room temperature water to defrost, and then membranes were removed and the remaining tissue cut into 1 cm pieces. The material was first passed through a course mesh meat grinder, and this mince was passed through a fine mesh grinder. The mince was homogenized in 10 v/w of buffer (16 mM sodium phosphate buffer pH 7.8, 400 mM NaCl) using a Waring blender. The homogenate was centrifuged at 15,000×g for 15 min at 4° C. After centrifugation, the supernatant was discarded and the pellets resuspended in 10 volumes of the same buffer. The mixture was blended again and centrifuged with the same settings. This time the pellets were blended in 3 volumes of extraction buffer (16 mM sodium phosphate buffer pH 7.8) and left to incubate at 4° C. for 2 h. After this time, the slurry was centrifuged with the same settings as described above. The supernatant was used in an ultrafiltration step to remove large proteins by size exclusion through a 30 kDalton filter (EMD Millipore). The filtrate was mixed with DEAE Sephadex (GE Healthcare), or passed over a MonoQ FPLC column. After two washes, one in 16 mM sodium phosphate buffer pH 7.8, 380 mM NaCl, and another in 16 mM sodium phosphate buffer pH 7.8, the proteins were eluted with 16 mM sodium phosphate pH 7.8, 10 μM CuSO4, and 4 M urea. Fractions containing Lox activity were collected and stored frozen at −70° C.
Final concentration in the LOX assay is shown in Table 6 below and performed in a total volume of […].
7 μl of freshly prepared reaction buffer were delivered to reaction wells. Compounds were resuspended in 100% DMSO at 10 mM and delivered into buffer using acoustic technology (Echo550; nanoliter range). A 2.85× solution of LOX protein in reaction buffer was prepared (“LOX solution”) and 7 μl of LOX solution was added into the reaction wells. Buffer only was added to column 1 for no protein control. Reactions were incubated for 30 minutes at 37° C. A 3.33× mixture of cadaverine, Amplex Red, and HRP (“Substrate/Detection Mix) was prepared and subsequently 6 μL of the mixture was added to each reaction well. Progress of reactions was monitored for 120 minutes at 37° C. using Clariostar plate reader (ex530-12, ems 600-40). For all activity assays, pan-LOX inhibitor CCT365623 (Tang et al, 2017) and LOXL2/LOXL3 inhibitor PAT-1251 (PharmaKea) were included as standards.
The slope of the linear portion of the progress curve was calculated using Clariostar software. Typical analysis interval was between 20-50 min, but varied between experiments. The background subtracted signals (No protein wells were considered as background) were converted to % activity relative to DMSO controls. Data was analyzed using GraphPad Prism 4 with “sigmoidal dose-response (variable slope)”; 4 parameters with Hill Slope. Constraints: Bottom=Constant equal to 0. Top=Must be less than 120.

SMILES | pIC50
NCc1ccnc(S(=O)(=O)C[C@@H]2C[C@H](c3ccccc3)CN2S(=O)(=O)N2CCOCC2)c1 (racemic) [Example 195, Cis-(2-(((1-(Morpholinosulfonyl)-4-phenylpyrrolidin-2-yl)methyl)sulfonyl)pyridin-4-yl)methanamine 2,2,2-trifluoroacetate] | 4.52 to 6.00
NCc1ccnc(S(=O)(=O)C[C@@H]2C[C@H](c3ccccc3)CN2S(=O)(=O)N2CCS(=O)(=O)CC2)c1 (racemic) [Example 196, cis-4-((2-(((4-(Aminomethyl)pyridin-2-yl)sulfonyl)methyl)-4-phenylpyrrolidin-1-yl)sulfonyl)thiomorpholine 1,1-dioxide 2,2,2-trifluoroacetate] | 4.52 to 6.00
NCc1ccnc(S(=O)(=O)C[C@H]2C[C@@H](c3ccccc3)CN2S(=O)(=O)N2CCOCC2)c1 (single isomer, unassigned) [Example 195A] | 4.52 to 6.00
NCc1ccnc(S(=O)(=O)C[C@@H]2C[C@H](c3ccccc3)CN2S(=O)(=O)N2CCOCC2)c1 (single isomer, unassigned) [Example 195B] | 4.52 to 6.00
NCc1ccnc(S(=O)(=O)C[C@@H]2C[C@H](c3ccccc3)CN2S(=O)(=O)N2CCS(=O)(=O)CC2)c1 [Example 196A, 4-(((2S,4R)-2-(((4-(aminomethyl)pyridin-2-yl)sulfonyl)methyl)-4-phenylpyrrolidin-1-yl)sulfonyl)thiomorpholine 1,1-dioxide 2,2,2-trifluoroacetate] | 6.00 to 6.30
NCc1ccnc(S(=O)(=O)C[C@H]2C[C@@H](c3ccccc3)CN2S(=O)(=O)N2CCS(=O)(=O)CC2)c1 [Example 196B, 4-(((2R,4S)-2-(((4-(aminomethyl)pyridin-2-yl)sulfonyl)methyl)-4-phenylpyrrolidin-1-yl)sulfonyl)thiomorpholine 1,1-dioxide 2,2,2-trifluoroacetate] | 6.00 to 6.30
